According to the supplement of paper PMC10307832:

Assays:
Assay in all cases: relative viability (nuclei count vs DMSO), 5 days (fraction); higher = more cells survive
[1] = system: LCLC-103H
In short: (§1)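 Each reported value is a median over duplicate plates. It expresses relative viability: treated-well nuclei count divided by vehicle-well nuclei count. Lung cancer cell lines in 1536-well plates were dosed by pin tool a day after seeding, alone with one drug or with a fixed anchor-drug dose plus five library-drug doses (not always all listed) in √10 steps, and nuclei were counted after 5 days.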

[2] = system: Calu-6
In short: as §1

[3] = system: UMC-11
In short: as §1

[4] = system: NCI-H1703
In short: as §1

[5] = system: HCC-15
In short: as §1

[6] = system: NCI-H1299
In short: as §1

[7] = system: IA-LM
In short: as §1

[8] = system: A549
In short: as §1

[9] = system: EBC-1
In short: as §1

[10] = system: NCI-H1623
In short: as §1

[11] = system: NCI-H522
In short: as §1

`C=C1C(=O)O[C@@H](CCCCCCCC)[C@@H]1C(=O)O` [C-75] + COc1cc2c(Oc3ccc(NC(=O)C4(C(=O)Nc5ccc(F)cc5)CC4)cc3F)ccnc2cc1OCCCN1CCOCC1 [Foretinib] (partner 0.25 µM) was tested, and the relative viability ([1]; first compound 0.08 µM) was 0.814, the relative viability ([1]; first compound 0.253 µM) was 0.736 and the relative viability ([1]; first compound 0.8 µM) was 0.687. It also gave a relative viability ([1]; first compound 2.53 µM) of 0.598, a relative viability ([1]; first compound 8 µM) of 0.743 and a relative viability ([2]; first compound 0.08 µM) of 0.875. The relative viability ([2]; first compound 0.253 µM) was 0.914, the relative viability ([2]; first compound 0.8 µM) was 0.81 and the relative viability ([2]; first compound 2.53 µM) was 0.634. For the same compound, the relative viability ([2]; first compound 8 µM) was 0.907, the relative viability ([3]; first compound 0.08 µM) was 0.99 and the relative viability ([3]; first compound 0.253 µM) was 1.04. It also gave a relative viability ([3]; first compound 0.8 µM) of 0.978, a relative viability ([3]; first compound 2.53 µM) of 0.681 and a relative viability ([3]; first compound 8 µM) of 0.69. For the same compound, the relative viability ([4]; first compound 0.08 µM) was 0.399, the relative viability ([4]; first compound 0.253 µM) was 0.334 and the relative viability ([4]; first compound 0.8 µM) was 0.325. The relative viability ([4]; first compound 2.53 µM) was 0.355, the relative viability ([4]; first compound 8 µM) was 0.388 and the relative viability ([5]; first compound 0.08 µM) was 0.949. The relative viability ([5]; first compound 0.253 µM) was 1.01, the relative viability ([5]; first compound 0.8 µM) was 0.956 and the relative viability ([5]; first compound 2.53 µM) was 1. The relative viability ([5]; first compound 8 µM) was 0.931, the relative viability ([6]; first compound 0.08 µM) was 1.12 and the relative viability ([6]; first compound 0.253 µM) was 1.03. For the same compound, the relative viability ([6]; first compound 0.8 µM) was 1.04, the relative viability ([6]; first compound 2.53 µM) was 1.04 and the relative viability ([6]; first compound 8 µM) was 1.11. It also gave a relative viability ([7]; first compound 0.08 µM) of 1.14, a relative viability ([7]; first compound 0.253 µM) of 1.38 and a relative viability ([7]; first compound 0.8 µM) of 1.02. It also gave a relative viability ([7]; first compound 2.53 µM) of 1.25, a relative viability ([7]; first compound 8 µM) of 1.01 and a relative viability ([8]; first compound 0.08 µM) of 0.946. The relative viability ([8]; first compound 0.253 µM) was 0.977, the relative viability ([8]; first compound 0.8 µM) was 1.01 and the relative viability ([8]; first compound 8 µM) was 0.869. It also gave a relative viability ([9]; first compound 0.08 µM) of 0.101, a relative viability ([9]; first compound 0.253 µM) of 0.11 and a relative viability ([9]; first compound 0.8 µM) of 0.107. For the same compound, the relative viability ([9]; first compound 8 µM) was 0.0983, the relative viability ([10]; first compound 0.08 µM) was 0.861 and the relative viability ([10]; first compound 0.253 µM) was 1.09. The relative viability ([10]; first compound 0.8 µM) was 0.747, the relative viability ([10]; first compound 2.53 µM) was 0.686 and the relative viability ([10]; first compound 8 µM) was 0.993.

`C=C1C(=O)O[C@@H](CCCCCCCC)[C@@H]1C(=O)O` [C-75] + N=C(N)NC(=N)NCCc1ccccc1 [Phenformin] (partner 250 µM) showed a relative viability ([1]; first compound 0.08 µM) of 0.325, a relative viability ([1]; first compound 0.253 µM) of 0.35 and a relative viability ([1]; first compound 0.8 µM) of 0.311. The relative viability ([1]; first compound 2.53 µM) was 0.253, the relative viability ([1]; first compound 8 µM) was 0.389 and the relative viability ([3]; first compound 0.08 µM) was 0.335. The relative viability ([3]; first compound 0.253 µM) was 0.346, the relative viability ([3]; first compound 0.8 µM) was 0.325 and the relative viability ([3]; first compound 2.53 µM) was 0.278. It also gave a relative viability ([3]; first compound 8 µM) of 0.272, a relative viability ([5]; first compound 0.08 µM) of 0.489 and a relative viability ([5]; first compound 0.253 µM) of 0.469. The relative viability ([5]; first compound 0.8 µM) was 0.42, the relative viability ([5]; first compound 2.53 µM) was 0.377 and the relative viability ([5]; first compound 8 µM) was 0.446. For the same compound, the relative viability ([11]; first compound 0.08 µM) was 0.61, the relative viability ([11]; first compound 0.253 µM) was 0.382 and the relative viability ([11]; first compound 0.8 µM) was 0.614. It also gave a relative viability ([11]; first compound 8 µM) of 0.582, a relative viability ([8]; first compound 0.08 µM) of 0.185 and a relative viability ([8]; first compound 0.253 µM) of 0.211. For the same compound, the relative viability ([8]; first compound 0.8 µM) was 0.186, the relative viability ([8]; first compound 2.53 µM) was 0.119 and the relative viability ([8]; first compound 8 µM) was 0.121. The relative viability ([10]; first compound 0.08 µM) was 0.613, the relative viability ([10]; first compound 0.253 µM) was 0.652 and the relative viability ([10]; first compound 0.8 µM) was 0.584. For the same compound, the relative viability ([10]; first compound 2.53 µM) was 0.542 and the relative viability ([10]; first compound 8 µM) was 0.578.

`CC1(C)CCC(c2ccc(Cl)cc2)=C(CN2CCN(c3ccc(C(=O)NS(=O)(=O)c4ccc(N[C@H](CCN5CCOCC5)CSc5ccccc5)c(S(=O)(=O)C(F)(F)F)c4)cc3)CC2)C1` [Navitoclax] + COc1cc2c(Oc3ccc(NC(=O)C4(C(=O)Nc5ccc(F)cc5)CC4)cc3F)ccnc2cc1OCCCN1CCOCC1 [Foretinib] (partner 0.25 µM) gave a relative viability ([1]; first compound 0.005 µM) of 0.676, a relative viability ([1]; first compound 0.01581 µM) of 0.934 and a relative viability ([1]; first compound 0.05 µM) of 0.973. For the same compound, the relative viability ([1]; first compound 0.1581 µM) was 0.832, the relative viability ([1]; first compound 0.5 µM) was 0.81 and the relative viability ([2]; first compound 0.005 µM) was 0.852. It also gave a relative viability ([2]; first compound 0.01581 µM) of 0.921, a relative viability ([2]; first compound 0.05 µM) of 0.937 and a relative viability ([2]; first compound 0.1581 µM) of 0.916. It also gave a relative viability ([2]; first compound 0.5 µM) of 0.894, a relative viability ([3]; first compound 0.005 µM) of 0.976 and a relative viability ([3]; first compound 0.01581 µM) of 1.14. It also gave a relative viability ([3]; first compound 0.05 µM) of 1.18, a relative viability ([3]; first compound 0.1581 µM) of 0.937 and a relative viability ([3]; first compound 0.5 µM) of 0.66. For the same compound, the relative viability ([4]; first compound 0.005 µM) was 0.472, the relative viability ([4]; first compound 0.01581 µM) was 0.369 and the relative viability ([4]; first compound 0.05 µM) was 0.416. It also gave a relative viability ([4]; first compound 0.1581 µM) of 0.337, a relative viability ([4]; first compound 0.5 µM) of 0.353 and a relative viability ([5]; first compound 0.005 µM) of 1.01. The relative viability ([5]; first compound 0.01581 µM) was 1.05, the relative viability ([5]; first compound 0.05 µM) was 0.977 and the relative viability ([5]; first compound 0.1581 µM) was 0.982. For the same compound, the relative viability ([5]; first compound 0.5 µM) was 0.918, the relative viability ([6]; first compound 0.005 µM) was 1.1 and the relative viability ([6]; first compound 0.01581 µM) was 1.1. It also gave a relative viability ([6]; first compound 0.05 µM) of 1.12, a relative viability ([6]; first compound 0.1581 µM) of 1.11 and a relative viability ([6]; first compound 0.5 µM) of 1.11. It also gave a relative viability ([7]; first compound 0.005 µM) of 1.18, a relative viability ([7]; first compound 0.01581 µM) of 1.2 and a relative viability ([7]; first compound 0.05 µM) of 1.36. It also gave a relative viability ([7]; first compound 0.1581 µM) of 1.27, a relative viability ([7]; first compound 0.5 µM) of 1.18 and a relative viability ([8]; first compound 0.005 µM) of 0.887. The relative viability ([8]; first compound 0.01581 µM) was 1.03, the relative viability ([8]; first compound 0.05 µM) was 0.994 and the relative viability ([8]; first compound 0.1581 µM) was 1.02. For the same compound, the relative viability ([8]; first compound 0.5 µM) was 0.916, the relative viability ([9]; first compound 0.005 µM) was 0.0939 and the relative viability ([9]; first compound 0.01581 µM) was 0.118. It also gave a relative viability ([9]; first compound 0.05 µM) of 0.113, a relative viability ([9]; first compound 0.1581 µM) of 0.103 and a relative viability ([9]; first compound 0.5 µM) of 0.0895. It also gave a relative viability ([10]; first compound 0.005 µM) of 0.863, a relative viability ([10]; first compound 0.01581 µM) of 0.981 and a relative viability ([10]; first compound 0.05 µM) of 0.781. The relative viability ([10]; first compound 0.1581 µM) was 0.842 and the relative viability ([10]; first compound 0.5 µM) was 0.811.
